Consider 32 compounds from US9546196B2, “Compositions and methods of treatment of cancers” (The University of Toledo, priority 2009, dated 2017).

Ends that are not written are not given here. Peptide text beside a SMILES is read from it. * marks the point of attachment. Cbz = O=C(OCc1ccccc1)*; CH2F = FC*

One series concerns sGCα1. As to the kind of experiment: Western blotting of sGCα1 expression in VCaP cells. It is filed as cell-based. As to conditions: 1 nM R1881. As to the method:
FIG. 11A: VCaP cells were treated with or without 1 nM R1881 and Western blotting was used to measure expression of sGCα1. β-actin was used as a loading control.

For the next series, the system named is LNCaP cell culture. Type of series: cell-based. An excerpt: In one non-limiting example, Peptide A-8R [SEQ ID NO: 1] can be truncated to a smaller peptide that retains the same type of biological activity profile. In certain embodiments, truncating Peptide A-8R [SEQ ID NO: 1] results in greater potency upon conversion of some of the pharmacophore functionalities to peptidomimetic groups that can, in turn, enhance key interactions by lowering the net binding energy. In one experiment, Peptide A-8R [SEQ ID NO: 1] was divided into two parts, using the central proline residue as the division point. […] A minimum number of amino acids desired for cytotoxicity was then identified. […] The following Peptide A truncated and derivative probes were synthesized and evaluated for their effect on cytotoxicity after 3- and 6-day exposures:
The following table lists cell culture data for truncated Peptide A peptides. The amino acid sequences and IC50 values in μM concentrations depict cytotoxicity after 3- and 6-day exposures (“NotA” means not active). “8R” [SEQ ID NO: 6] signifies that 8 arginines are present on the carboxy terminus to mediate membrane translocation. The data has shown that the 8R terminus [SEQ ID NO: 6] can be either as the free carboxy (—OH) or amide (—NH2) with no alteration of permeation or observed activity.
The table below lists LNCaP cell culture data for various Peptide A derivatives, displaying the observed IC50 values in μM concentrations after 3- and 6-day exposures.

Series [1] has as its system LNCaP cells. It is filed as cell-based. As to conditions: increasing concentration of peptide, days; with or without 1 nM R1881. How it is done: FIG. 12B: LNCaP cells were grown without androgen for 2 or 4 days in the presence of increasing concentration of Peptide A-8R [SEQ ID NO: 1] (upper left), Peptide B-8R [SEQ ID NO: 2] (upper right), Peptide C-8R [SEQ ID NO: 3] (lower left), or Peptide D-8R [SEQ ID NO: 4] (lower right). The MTT reagent was used to measure cell density.
FIG. 13A: LNCaP cells were grown with (Right) or without (Left) 1 nM androgen ([…]) for 3 or 6 days in the presence of increasing concentration of Peptide A-8R [SEQ ID NO: 1] or vehicle (70% DMSO). The MTT reagent was used to measure cell density.
FIG. 13B: LNCaP cells were grown with (Right) or without (Left) 1 nM androgen (R1881) for 3 or 6 days in the presence of increasing concentration of Peptide C-8R [SEQ ID NO: 3] or vehicle and then cell density was measured.
FIG. 14A: LNCaP cells were grown with (Right) or without (Left) 1 nM R1881 for 3 or 6 days in the presence of increasing concentration of Peptide A or vehicle and then cell density was measured.
FIG. 14B: LNCaP cells were grown with (Right) or without (Left) 1 nM R1881 for 3 or 6 days in the presence of increasing concentration of Peptide A-8R [SEQ ID NO: 1] or vehicle and then cell density was measured.
FIG. 15A: LNCaP cells were grown for 1-8 hrs in the presence of 10 μM Peptide A-8R [SEQ ID NO: 1] or vehicle and then cell density was measured.
FIG. 19C: LNCaP cells were grown with for 12 or 48 hrs in the presence of increasing concentration of Peptide A-8R [SEQ ID NO: 1] (Left) or PeptideA-8R-Biotin [SEQ ID NO: 1] (Right) and then cell density was measured.
Each peptide contained 8 arginines at the C-terminus, a sequence which is known to mediate plasma membrane translocation and cellular internalization.
To measure how rapid the cytotoxic effect of Peptide A-8R [SEQ ID NO: 1] occurs, LNCaP cells were treated with 10 μM peptide and incubated for 1-8 hrs. […] Using the same conditions, C81 cells were used to study the peptide effect on hormone-refractory prostate cancer cells.

In series [2] the test system is LNCaP cells. Kind of series: LNCaP cell viability with etoposide, MTT assay. It is filed as cell-based. The note with it: 10 μM etoposide, two days. As to the method:
FIG. 7B: Over-expression of sGCα1 protects prostate cancer cells from the lethal effects of etoposide. LNCaP cells were infected with control empty adenovirus (−sGCα1; 20 MOI) or sGCα1-expressing adenovirus (+sGCα1; 2 or 20 MOI) and treated with 10 μM etoposide. After two days of incubation, cell number was quantified by MTT assay. Bar graphs represent averages of three independent experiments plus standard deviations. All activities are relative to the first condition, and this activity was set to 100%.
LNCaP cells were infected with an sGCα1-expressing adenovirus and treated with etoposide, an inducer of apoptosis. […] This finding, together, with the PCR array data showing that sGCα1 can regulate Survivin expression, is consistent with results showing that Survivin desensitizes prostate cancer cells to etoposide.
For orientation: Tetrazolium dyes change colour on reduction, which living cells bring about.

The next series relates to MDM2. Kind of series: Western blotting of MDM2 in LNCaP nuclear and cytosolic extracts. The note with it: LNCaP cells. It is filed as cell-based. As to the method: FIG. 4B: Nuclear (N) and cytosolic (C) extracts were prepared from LNCaP cells and Western blotting was used to measure protein levels of MDM2, p53, JAB1, and sGCα1. β-actin was used as loading control.
LNCaP cells were infected with an sGCα1-expressing adenovirus or control empty virus and p53 subcellular localization was measured by Western blotting following cell fractionation.
(In general: Immunoblotting shows a protein as a band on a membrane.)

For series [3], the system named is p53 transcriptional activity. As to the kind of experiment: p53-Luc reporter assay, sGCα1-mediated repression of p53 transcriptional activity in LNCaP cells. It is filed as cell-based. An excerpt:
FIGS. 1A-1F: Over-expression of sGCα1 inhibits p53 transcriptional activity. p53 activity was quantified by measuring luciferase activity. Bar graphs represent the average of three independent experiments plus standard deviation. All cells received the same amount of transfected expression plasmid and that pCH110 was used to control transfection efficiency.
FIGS. 2A-2F: The sGCα1-mediated repression of p53 transcriptional activity is independent of mediators of NO signaling and guanylyl cyclase activity. Androgen-dependent LNCaP cells were transfected with 0.5 μg pCH110, 0.1 μg p53-Luc reporter plasmid, and subjected to different treatments:
FIG. 2A: Cells were transfected with 0.5 μg pCH110, 0.1 μg p53-Luc reporter plasmid, and subjected to […] ODQ.
FIG. 2C: Cells were treated with different concentrations of C-PTIO.
FIG. 2D: Cells were treated with different concentrations of SNP.
FIG. 2E: Cells were treated with different concentrations of 8-Br-cGMP.
(§1) To determine whether nitric oxide (NO) signaling is involved in sGCα1-mediated repression of p53 transcriptional activity, NO interfering drugs were used.
Supporting this finding, the NO donor SNP had no effect (FIG. 2D).
(In general: Reporter assays use an easily measured gene product as a stand-in for the process of interest.)

A further series deals with sGC (Homo sapiens, UniProt Q02153). Kind of series: sGC-catalyzed cGMP synthesis (data not shown). It is filed as biochemical. As to conditions: the two ODQ concentrations.
From the text: as §1

The subject of series [4] is LNCaP cells. As to the kind of experiment: Relief of Peptide A-8R cytotoxicity by pan-caspase inhibitor in LNCaP cells. It is filed as cell-based. As to conditions: 4 hrs. As to the method: FIG. 18B: LNCaP cells were grown for 4 hrs in the presence of increasing concentration of Peptide A-8R [SEQ ID NO: 1] with or without […] Z-VAD-FMK and then cell density was measured.
To determine if the cytotoxicity of Peptide A-8R [SEQ ID NO: 1] is through apoptosis, LNCaP cells were monitored for Caspase 3/7 activity. […] Thus, Peptide A-8R [SEQ ID NO: 1] was able to induce Caspase 3/7 activity much faster than the well-studied apoptosis-inducing drug Etoposide. To confirm that the Peptide was killing cells via apoptosis, the inventors used the pan-caspase inhibitor Z-VAD-FMK.

Sequence of sGC (Q02108 whole entry partner): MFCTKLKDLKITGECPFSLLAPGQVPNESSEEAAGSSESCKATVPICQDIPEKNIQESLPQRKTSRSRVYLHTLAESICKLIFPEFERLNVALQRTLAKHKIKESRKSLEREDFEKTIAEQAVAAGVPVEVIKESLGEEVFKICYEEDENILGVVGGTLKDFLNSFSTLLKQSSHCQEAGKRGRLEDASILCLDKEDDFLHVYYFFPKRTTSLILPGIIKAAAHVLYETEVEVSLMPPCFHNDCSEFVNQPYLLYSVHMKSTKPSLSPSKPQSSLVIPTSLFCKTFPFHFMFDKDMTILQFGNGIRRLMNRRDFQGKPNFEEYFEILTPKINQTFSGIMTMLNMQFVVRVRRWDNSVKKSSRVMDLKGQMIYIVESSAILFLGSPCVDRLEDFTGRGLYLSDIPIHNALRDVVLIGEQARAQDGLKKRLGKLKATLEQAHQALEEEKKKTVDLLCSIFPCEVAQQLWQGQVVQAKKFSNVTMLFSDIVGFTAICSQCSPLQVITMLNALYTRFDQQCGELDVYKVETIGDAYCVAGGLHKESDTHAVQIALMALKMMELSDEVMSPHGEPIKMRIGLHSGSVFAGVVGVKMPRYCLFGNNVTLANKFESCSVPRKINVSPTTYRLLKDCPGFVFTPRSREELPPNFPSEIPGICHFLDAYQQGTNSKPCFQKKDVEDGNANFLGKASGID
Sequence of sGC (Q02153 whole entry): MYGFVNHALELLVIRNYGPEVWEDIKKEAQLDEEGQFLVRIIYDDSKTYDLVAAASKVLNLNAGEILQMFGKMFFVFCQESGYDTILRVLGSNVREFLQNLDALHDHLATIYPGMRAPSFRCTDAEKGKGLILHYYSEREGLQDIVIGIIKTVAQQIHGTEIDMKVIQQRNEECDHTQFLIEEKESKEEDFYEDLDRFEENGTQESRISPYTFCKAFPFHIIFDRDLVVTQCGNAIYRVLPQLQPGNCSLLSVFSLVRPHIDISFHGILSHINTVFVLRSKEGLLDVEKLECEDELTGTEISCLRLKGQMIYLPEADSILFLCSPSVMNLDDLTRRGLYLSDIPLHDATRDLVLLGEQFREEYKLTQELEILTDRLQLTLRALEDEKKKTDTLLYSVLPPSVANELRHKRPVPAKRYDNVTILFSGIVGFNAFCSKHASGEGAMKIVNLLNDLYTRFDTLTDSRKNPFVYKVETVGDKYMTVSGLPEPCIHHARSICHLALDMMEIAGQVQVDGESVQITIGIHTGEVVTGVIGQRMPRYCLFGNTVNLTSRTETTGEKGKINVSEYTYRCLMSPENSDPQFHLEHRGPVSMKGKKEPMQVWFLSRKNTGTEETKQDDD

For the compound `C[C@]1(O)CC[C@H]2[C@@H]3CCC4=CC(=O)CCC4=C3C=C[C@@]21C` [Peptide R1881, R1881], in the series with sGCα1, the sGCα1 protein expression entry is “significantly induced”.

Take TFCKAFP [TP7, TFCKAFP]: the “cytotoxicity / activity in cells (in words)” value (from here on “cytotoxicity / activity”) in the series with LNCaP cell culture is “retained cytotoxicity”.

As for FCAAFRRRRRRRR-NH2 [FF5-K3M-8R], the Cytotoxicity result in the series on LNCaP cell culture is “Yes”. As for CKAFRRRRRRRR-NH2 [Peptide CF4-8R], in the series with LNCaP cell culture, the Cytotoxicity entry is given as “Yes” and the “cytotoxicity / activity” value was “lower-level activities retained”. For the compound `C[C@@H](O)[C@H](N)C(=O)N[C@@H](Cc1ccccc1)C(=O)N[C@@H](CS)C(=O)O` [TC3, TFC] (H-Thr-Phe-Cys-OH), the “cytotoxicity / activity” value in the series on LNCaP cell culture was “diminished but yet still significant cytotoxicity”. Take FCKAF-NH2 [FF5-NH2, FCKAF]: the Cytotoxicity entry in the series on LNCaP cell culture is on record as “No”. Still for that read-out and setting: the result for TFCKAFPRRRRRRRR-NH2 [Peptide TP7-8R] reads “Yes”. In the case of `C[C@H](NC(=O)[C@H](CCCCN)NC(=O)[C@H](CS)NC(=O)[C@@H](N)Cc1ccccc1)C(=O)O` [FA4, FCKA] (H-FCKA-OH), in the series on LNCaP cell culture, the “cytotoxicity / activity” value is “diminished but yet still significant cytotoxicity”. Consider Ac-LRLKGQMIYLRRRRRRRR-OH [Peptide B-8R], for which the “effect on LNCaP cell growth / cytotoxicity (in words)” value with LNCaP cells [1] was “stopped the growth”.

On to FCKAFRRRRRRRR-NH2 [Peptide FF5-8R], for which, in the series with LNCaP cell culture, the Cytotoxicity result is “Yes”. Same read-out and setting: the result for FCKAFPRRRRRRRR-NH2 [Peptide FP6-8R] reads “Yes”; that for KAFPRRRRRRRR [Peptide KP4-8R], “No”. As for TFCKAFRRRRRRRR-NH2 [Peptide TF6-8R], in the series with LNCaP cell culture, the Cytotoxicity entry was “Yes” and the “cytotoxicity / activity” value is given as “quite comparable”. Consider FCKAARRRRRRRR-NH2 [FA5-8R], for which the Cytotoxicity entry with LNCaP cell culture is “Yes”.

TFCRRRRRRRR [Peptide TC3-8R]: in the series with LNCaP cell culture, the Cytotoxicity result was “Yes” and the “cytotoxicity / activity” value is given as “lower-level activities retained”. As to `COc1cc([C@@H]2c3cc4c(cc3[C@@H](O[C@@H]3O[C@@H]5CO[C@@H](C)O[C@H]5[C@H](O)[C@H]3O)[C@H]3COC(=O)[C@H]23)OCO4)cc(OC)c1O` [Etoposide], in the series with LNCaP cells [2], the “viability of LNCaP cells” value is reported as “significantly reduced”. Regarding `CC(C)C[C@@H](C=O)NC(=O)[C@H](CC(C)C)NC(=O)[C@H](CC(C)C)NC(=O)OCc1ccccc1` [MG132] (Cbz-Leu-Leu-Leu-aldehyde), the MDM2 cytoplasmic levels entry in the series on MDM2 is given as “significantly enhanced”.

Ac-TFCKAFPFHII [Peptide A]: in the series with LNCaP cells [1], the “effect on LNCaP cell growth / cytotoxicity (in words)” value was “no effect”. On to KAFPFHRRRRRRRR [Peptide KH6-8R], for which, in the series on LNCaP cell culture, the Cytotoxicity result was “No”. Turning to PFHIIRRRRRRRR-NH2 [Peptide PI5-8R], in the series with LNCaP cell culture, the Cytotoxicity result is listed as “No”. Regarding `CC1(C)N([O])C(c2ccc(C(=O)O)cc2)=[N+]([O-])C1(C)C` [C-PTIO], the p53 activity result in series [3] (100 nM of drug) was “inhibit p53 activity”. For Ac-PLHDATRDLVRRRRRRRR-OH [Peptide C-8R], in the series with LNCaP cells [1], the “effect on LNCaP cell growth / cytotoxicity (in words)” value is given as “no effect”. With FAKAFRRRRRRRR-NH2 [Peptide FF5-C2A-8R], in the series with LNCaP cell culture, the Cytotoxicity result is “Yes” and the “cytotoxicity / activity” value is “dramatically reduced activity”. For FCKARRRRRRRR [Peptide FA4-8R] the same measures were “Yes” and “lower-level activities retained”. With ACKAFRRRRRRRR-NH2 [AF5-8R], in the series on LNCaP cell culture, the Cytotoxicity result is on record as “Yes”. On to `O=c1onc2cnc3ccccc3n12` [ODQ], for which the “effect on sGCα1-mediated repression of p53” value in series [3] (5 or 50 mM ODQ) was “no effect”. Besides, the “sGC-catalyzed cGMP synthesis” value on sGC is reported as “strongly inhibited”. Turning to FCKAF [FF5-OH, FCKAF], in the series with LNCaP cell culture, the Cytotoxicity entry was “No”. For FMKAFRRRRRRRR-NH2 [Peptide FF5-C2M-8R], in the series on LNCaP cell culture, the Cytotoxicity result is listed as “Yes” and the “cytotoxicity / activity” value was “significant activity was retained”.

Regarding `COC(=O)C[C@H](NC(=O)[C@H](C)NC(=O)[C@@H](NC(=O)OCc1ccccc1)C(C)C)C(=O)CF` [Z-VAD-FMK] (Cbz-Val-Ala-Asp(OMe)-CH2F), the “effect on Vehicle-treated cells” value in the series on LNCaP cells [4] (40 mM Z-VAD-FMK) was “no significant effect”. Moreover, the “relief of the Peptide A-8R cytotoxic effect” value with LNCaP cells [4] (pretreatment with 40 mM Z-VAD-FMK, peptide up to 50 μM) is reported as “complete relief”. `Nc1nc2c(nc(Br)n2[C@@H]2O[C@@H]3COP(=O)(O)O[C@H]3[C@H]2O)c(=O)[nH]1` [Peptide 8-Br-cGMP, 8-Br-cGMP]: in series [3] (different concentrations), the p53 transcriptional activity result is given as “weakly enhanced”.

Regarding FCKAF [FF5], the “cytotoxicity / activity” value in the series with LNCaP cell culture was “inactive”. On the same count and under the same terms, in the case of PFHII [PI5, PFHII] it was “no activity”.
